We go through 4 molecules from ChEMBL document CHEMBL4043214, “Design, synthesis, and SAR study of 3-(benzo[d][1,3]dioxol-5-yl)-N-benzylpropanamide as novel potent synergists against fluconazole-resistant Candida albicans” (2017).

As a reminder, the MIC80 is an inhibitory concentration at the 80% level, which refers to growth in some studies and to a panel of isolates in others.

Common to all, as to assay type: functional
Assay [1] concerns Candida albicans. As to the kind of experiment: Synergistic anti-fungal activity against fluconazole-resistant Candida albicans isolate 103 in presence of fluconazole by two-fold dilution method.
Assay [2] relates to Candida albicans. As to the kind of experiment: Potentiation of fluconazole-induced anti-fungal activity against fluconazole-resistant Candida albicans isolate 103 at 4 ug/ml by checkerboard microdilution assay. In general terms: Dilution methods test growth across graded concentrations, often in twofold steps.
The test system of assay [3] is Candida albicans. As to the kind of experiment: Synergistic anti-fungal activity against fluconazole-resistant Candida albicans isolate 100 in presence of fluconazole by two-fold dilution method.
Assay [4] has as its system Candida albicans. In words: Potentiation of fluconazole-induced anti-fungal activity against fluconazole-resistant Candida albicans isolate 100 at 8 ug/ml by checkerboard microdilution assay.
In assay [5] the test system is Candida albicans. As to the kind of experiment: Anti-fungal activity against fluconazole-resistant Candida albicans isolate 100 by microbroth dilution method.
In assay [6] the test system is Candida albicans. In words: Potentiation of fluconazole-induced anti-fungal activity against fluconazole-resistant Candida albicans isolate 103 assessed as fluconazole MIC80 at 8 ug/ml by checkerboard microdilution assay.
Assay [7] concerns Candida albicans. As to the kind of experiment: Potentiation of fluconazole-induced anti-fungal activity against fluconazole-resistant Candida albicans isolate 103 assessed as fluconazole MIC80 at 2 ug/ml by checkerboard microdilution assay.
Assay [8] concerns Candida albicans. As to the kind of experiment: Anti-fungal activity against fluconazole-resistant Candida albicans isolate 103 by microbroth dilution method.
In assay [9] the test system is Candida albicans. In words: Potentiation of fluconazole-induced anti-fungal activity against fluconazole-resistant Candida albicans isolate 100 at 4 ug/ml by checkerboard microdilution assay.
The test system of assay [10] is Candida albicans. As to the kind of experiment: Potentiation of fluconazole-induced anti-fungal activity against fluconazole-resistant Candida albicans isolate 103 by two-fold dilution method.
For assay [11], the system named is Candida albicans. In words: Potentiation of fluconazole-induced anti-fungal activity against fluconazole-resistant Candida albicans isolate 103 at 1 ug/ml by checkerboard microdilution assay.
In assay [12] the test system is Candida albicans. As to the kind of experiment: Potentiation of fluconazole-induced anti-fungal activity against fluconazole-resistant Candida albicans isolate 100 assessed as fluconazole MIC80 at 2 ug/ml by checkerboard microdilution assay.
The test system of assay [13] is Candida albicans. In words: Potentiation of fluconazole-induced anti-fungal activity against fluconazole-resistant Candida albicans isolate 100 at 2 ug/ml by checkerboard microdilution assay.
Assay [14] deals with Candida albicans. As to the kind of experiment: Potentiation of fluconazole-induced anti-fungal activity against fluconazole-resistant Candida albicans isolate 100 assessed as fluconazole MIC80 at 1 ug/ml by checkerboard microdilution assay.
Assay [15] has as its system Candida albicans. As to the kind of experiment: Potentiation of fluconazole-induced anti-fungal activity against fluconazole-resistant Candida albicans isolate 103 assessed as fluconazole MIC80 at 4 ug/ml by checkerboard microdilution assay.
The test system of assay [16] is Candida albicans. In words: Potentiation of fluconazole-induced anti-fungal activity against fluconazole-resistant Candida albicans isolate 100 assessed as fluconazole MIC80 at 4 ug/ml by checkerboard microdilution assay.
Assay [17] concerns Candida albicans. In words: Potentiation of fluconazole-induced anti-fungal activity against fluconazole-resistant Candida albicans isolate 103 at 2 ug/ml by checkerboard microdilution assay.
The subject of assay [18] is Candida albicans. In words: Potentiation of fluconazole-induced anti-fungal activity against fluconazole-resistant Candida albicans isolate 100 by two-fold dilution method.
Assay [19] has as its system Candida albicans. As to the kind of experiment: Potentiation of fluconazole-induced anti-fungal activity against fluconazole-resistant Candida albicans isolate 103 at 8 ug/ml by checkerboard microdilution assay.
The subject of assay [20] is Candida albicans. In words: Potentiation of fluconazole-induced anti-fungal activity against fluconazole-resistant Candida albicans isolate 100 at 1 ug/ml by checkerboard microdilution assay.
For assay [21], the system named is Candida albicans. As to the kind of experiment: Potentiation of fluconazole-induced anti-fungal activity against fluconazole-resistant Candida albicans isolate 100 assessed as fluconazole MIC80 at 8 ug/ml by checkerboard microdilution assay.
In assay [22] the test system is Candida albicans. As to the kind of experiment: Potentiation of fluconazole-induced anti-fungal activity against fluconazole-resistant Candida albicans isolate 103 assessed as fluconazole MIC80 at 1 ug/ml by checkerboard microdilution assay.

With `O=C(CCc1ccc2c(c1)OCO2)NCc1ccc(-c2ccccc2F)cc1`, the MIC80 in the assay on Candida albicans [1] was 0.031 µg/mL; in the assay on Candida albicans [3], 0.031 µg/mL; against Candida albicans [5] it was more than 64 µg/mL; in the assay with Candida albicans [6], 0.031 µg/mL; with Candida albicans [7], 0.125 µg/mL; in the assay with Candida albicans [8] it was more than 64 µg/mL. Further, the MIC80 with Candida albicans [12] was 0.125 µg/mL; in the assay on Candida albicans [14] it was 0.125 µg/mL; in the assay with Candida albicans [15], 0.063 µg/mL; in the assay with Candida albicans [16] it was 0.63 µg/mL; in the assay with Candida albicans [21] it was 0.031 µg/mL; in the assay with Candida albicans [22] it was 0.25 µg/mL. The “fractional inhibitory concentration index (FICI)” value was found to be 0.032 with Candida albicans [2]; 0.066 in the assay on Candida albicans [4]; 0.032 in the assay with Candida albicans [9]; 0.063 with Candida albicans [10]; 0.01 in the assay on Candida albicans [11]; 0.017 in the assay with Candida albicans [13]. Further, the “fractional inhibitory concentration index (FICI)” value in the assay with Candida albicans [17] was determined as 0.017; in the assay on Candida albicans [18], 0.063; with Candida albicans [19], 0.066; in the assay with Candida albicans [20] it was 0.009.

As for `Cc1ccc(-c2ccc(CNC(=O)CCc3ccc4c(c3)OCO4)cc2)cc1`, the MIC80 is 0.063 µg/mL in the assay with Candida albicans [1]; 0.063 µg/mL in the assay with Candida albicans [3]; more than 64 µg/mL in the assay with Candida albicans [5]; 0.063 µg/mL in the assay on Candida albicans [6]; 1 µg/mL with Candida albicans [7]; more than 64 µg/mL against Candida albicans [8]. The MIC80 in the assay on Candida albicans [12] was 1 µg/mL; in the assay with Candida albicans [14], 2 µg/mL; in the assay with Candida albicans [15], 1 µg/mL; in the assay with Candida albicans [16], 0.5 µg/mL; in the assay on Candida albicans [21], 0.063 µg/mL; with Candida albicans [22], 2 µg/mL. Moreover, the “fractional inhibitory concentration index (FICI)” value with Candida albicans [2] was 0.039; with Candida albicans [4], 0.063; in the assay on Candida albicans [9] it was 0.035; with Candida albicans [10], 0.063; with Candida albicans [11], 0.023; in the assay on Candida albicans [13], 0.023. Further, the “fractional inhibitory concentration index (FICI)” value came out at 0.023 in the assay with Candida albicans [17], 0.063 in the assay with Candida albicans [18], 0.063 with Candida albicans [19] and 0.023 in the assay on Candida albicans [20].

In the case of `O=C(CCc1ccc2c(c1)OCO2)NCc1ccc(-c2ccc(F)cc2)cc1`, the MIC80 in the assay with Candida albicans [1] is 0.063 µg/mL; in the assay with Candida albicans [3], 0.031 µg/mL; against Candida albicans [5], more than 64 µg/mL; with Candida albicans [6], 0.063 µg/mL; in the assay on Candida albicans [7], 0.25 µg/mL; with Candida albicans [8] it was more than 64 µg/mL. Moreover, the MIC80 was found to be 0.125 µg/mL with Candida albicans [12]; 0.25 µg/mL in the assay on Candida albicans [14]; 0.125 µg/mL with Candida albicans [15]; 0.063 µg/mL in the assay with Candida albicans [16]; 0.031 µg/mL with Candida albicans [21]; 0.25 µg/mL with Candida albicans [22]. Also, the “fractional inhibitory concentration index (FICI)” value in the assay with Candida albicans [2] came to 0.032; in the assay with Candida albicans [4], 0.064; with Candida albicans [9], 0.032; with Candida albicans [10], 0.063; in the assay with Candida albicans [11], 0.01; with Candida albicans [13] it was 0.017. Besides, the “fractional inhibitory concentration index (FICI)” value was found to be 0.018 in the assay on Candida albicans [17], 0.063 with Candida albicans [18], 0.064 in the assay on Candida albicans [19] and 0.01 in the assay with Candida albicans [20].

Take `COc1ccc2cc3[n+](cc2c1OC)CCc1cc2c(cc1-3)OCO2` [BERBERINE]: the MIC80 in the assay with Candida albicans [1] is 1 µg/mL; with Candida albicans [3], 1 µg/mL; with Candida albicans [5] it was 32 µg/mL; in the assay on Candida albicans [6] it was 1 µg/mL; in the assay on Candida albicans [7], 1 µg/mL; against Candida albicans [8], 32 µg/mL. The MIC80 in the assay on Candida albicans [12] worked out at 1 µg/mL; with Candida albicans [14], 2 µg/mL; with Candida albicans [15], 1 µg/mL; with Candida albicans [16], 1 µg/mL; with Candida albicans [21] it was 1 µg/mL; in the assay on Candida albicans [22], 2 µg/mL. In addition, the “fractional inhibitory concentration index (FICI)” value is recorded as 0.063 in the assay on Candida albicans [2]; 0.093 in the assay on Candida albicans [4]; 0.063 with Candida albicans [9]; 0.093 in the assay on Candida albicans [10]; 0.07 with Candida albicans [11]; 0.039 in the assay with Candida albicans [13]. The “fractional inhibitory concentration index (FICI)” value is listed as 0.039 with Candida albicans [17], 0.093 in the assay on Candida albicans [18], 0.093 with Candida albicans [19] and 0.07 in the assay with Candida albicans [20].
